Each structure is given as a SMILES string. “Also recorded” adds a separate entry of the source.

The test system of assay [1] is rat intestinal α-glucosidase. In words: Rat intestinal α-glucosidase inhibition assay. It is filed as biochemical. Particulars: in words, FIG. 1 and FIG. 2. As for the experimental part: • Enzyme: rat small intestinal acetone powder • Substrate: PNP-glycoside (pNPG, p-Nitrophenyl α-Dglucopyranoside) 150 mg of rat small intestine acetone powder was added to 9 ml of 0.1 M sodium phosphate buffer (pH 6.9; including 0.9% sodium chloride), ultrasonicated 12 times in an ice water bath for 30 seconds, and then centrifuged at 13,000 rpm and 4° C. for 3 minutes. After centrifugation, a supernatant was collected and used in rat intestinal α-glucosidase inhibition assay. 100 μl of a rat α-glucosidase solution and 50 μl of a sample solution were added and reacted at 37° C. for 10 minutes, and then 50 μl of 5 mM pNPG solution was added thereto to react the mixture at 37° C. for 10 minutes. After completion of the reaction, inhibitory activity against rat intestinal α-glucosidase was analyzed by measuring absorbance at 405 nm by using an ELISA reader. The sample solution used in the experiment was prepared as follows. The hot-water extract was centrifuged (8000 rpm, 30 min), the supernatant was filtered through a filter paper (90 mm/Whatman™), and the filtrate was concentrated to 60 to 150 ml and freeze-dried to produce extract powder. 100 mg of powder was mixed with 1 L of water to prepare a sample solution.

Assay [2] concerns SD rat. Nature of the assay: Postprandial blood sugar rise suppression after starch administration. It is filed as in vivo. As for the experimental part: (§1) An SD rat, a 5-week-old male, was purchased from RAONBIO, bred in an animal breeding room, and only healthy animals at 6 weeks of age were selected and used in the experiment. After fasting the experimental animals for 24 hours or longer before the experiment, the coffee extract was administered at a concentration of 0.5 g/kg to 2 g/kg body weight of sucrose or starch, and the sample was orally administered using a zonde for oral administration. The administration group was 6 groups, 6 per each group. The blood was collected from the rat tail vein at 30, 60 and 120 minutes after oral administration, and changes in blood sugar concentration in the venous blood were measured using a blood sugar meter ([…]).

Assay [3] has as its target T1, porcine pancreatic α-amylase (Sus scrofa, UniProt P00690).
T1 sequence (P00690 16-511): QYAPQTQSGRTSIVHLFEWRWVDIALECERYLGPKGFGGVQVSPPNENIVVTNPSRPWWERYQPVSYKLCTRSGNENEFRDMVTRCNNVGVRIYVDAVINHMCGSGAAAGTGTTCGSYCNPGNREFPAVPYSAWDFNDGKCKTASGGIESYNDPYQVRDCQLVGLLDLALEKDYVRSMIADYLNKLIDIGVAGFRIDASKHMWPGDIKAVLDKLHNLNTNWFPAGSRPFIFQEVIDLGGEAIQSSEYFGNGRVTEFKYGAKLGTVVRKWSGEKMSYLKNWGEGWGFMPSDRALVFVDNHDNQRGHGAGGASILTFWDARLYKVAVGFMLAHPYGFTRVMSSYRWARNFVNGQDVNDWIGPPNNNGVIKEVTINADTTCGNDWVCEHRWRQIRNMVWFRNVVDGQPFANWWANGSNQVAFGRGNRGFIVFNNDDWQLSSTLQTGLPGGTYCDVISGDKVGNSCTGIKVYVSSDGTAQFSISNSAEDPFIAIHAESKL
Nature of the assay: Porcine pancreatic α-amylase inhibition assay. Type of assay: biochemical. Particulars: at a concentration of 25 mM/ml, FIG. 4. The procedure:
• Enzyme: porcine pancreatic α-amylase • Substrate: 1% starch solution in 0.02 M sodium phosphate buffer (pH 6.9) • Coloring Reagent: 3,5-dinitrosalicylic acid solution (DNS) in 2 M NaOH with 30% sodium potassium tartrate tetrahydrate
200 μl of a sample solution was added to 300 μl of a porcine pancreatic α-amylase solution having a concentration of 10 U, which is dissolved in a 0.02 M sodium phosphate buffer (pH 6.9; including 0.006 M sodium chloride), and incubated at 25° C. for 10 minutes.
500 μl of a 1% starch solution, which was pre-cultured at 25° C. for 10 minutes, was added to the solution, and the mixture was reacted at 25° C. for 10 minutes.
1 ml of a 1% DNS solution dissolved in 30% Rochelle salt was added and treated in boiling water bath for 5 minutes and cooled to room temperature, and 10 ml of distilled water was added to the resultant.
The absorbance of a reaction solution of the DNS solution and sugar decomposed from the substrate by α-amylase was measured at 540 nm by using an ELISA reader.

For assay [4], the system named is SD rat. In words: Postprandial blood sugar rise suppression after sucrose administration. Particulars: for postprandial blood sugar: sucrose. It is filed as in vivo. As for the experimental part:
as §1

[5] abbreviates: 0.1 g/kg of chlorogenic acid, 30 minutes.
Where [6] appears, read: 0.1 g/kg of chlorogenic acid, 60 minutes (first value of 'from 30 minutes to 2 hours').
[7] abbreviates: 0.1 g/kg of chlorogenic acid, 120 minutes (2 hours).
Where [8] appears, read: 0.5 g/kg of chlorogenic acid, 30 minutes.
Where [9] appears, read: 0.5 g/kg of chlorogenic acid, 60 minutes (first value of 'from 30 minutes to 2 hours').
The mark [10] stands for this setting: 0.5 g/kg of chlorogenic acid, 120 minutes (2 hours).

On to `O=C(O)/C=C/c1ccc(O)c(O)c1` [caffeic acid], for which the “inhibitory activity against rat intestinal α-glucosidase” value in assay [1] is “increases in dependence on the concentration”.
On to `O=C(/C=C/c1ccc(O)c(O)c1)O[C@@H]1C[C@](O)(C(=O)O)C[C@@H](O)[C@H]1O` [chlorogenic acid], for which the blood sugar in the assay with SD rat [2] (setting [5]) turned out to be 239.00 ± 25.86 mg/dL; in the assay with SD rat [2] (setting [6]), 137.33 ± 10.46 mg/dL; in the assay with SD rat [2] (setting [7]), 126.08 ± 10.75 mg/dL; in the assay on SD rat [2] (setting [8]), 225.17 ± 18.37 mg/dL; with SD rat [2] (setting [9]), 137.23 ± 9.58 mg/dL; in the assay with SD rat [2] (setting [10]) it was 126.46 ± 12.1 mg/dL. The “inhibitory activity against α-amylase” value in assay [3] is reported as “excellent inhibitory activity”. Also, in assay [1], the “inhibitory activity against rat intestinal α-glucosidase” value is recorded as “increases in dependence on the concentration; also recorded: the most excellent”. In the assay on SD rat [4] (in words), the “effect on postprandial blood sugar rise after sucrose intake” value is listed as “effect of suppressing postprandial blood sugar rise”. Further, the postprandial blood sugar in the assay with SD rat [4] (setting [5]) stood at 184.93 ± 8.24 mg/dL; in the assay on SD rat [4] (setting [6]), 174.00 ± 16.67 mg/dL; in the assay on SD rat [4] (setting [7]), 147.38 ± 10.86 mg/dL; in the assay with SD rat [4] (setting [8]) it was 131.29 ± 14.47 mg/dL; in the assay with SD rat [4] (setting [9]), 130.64 ± 10.90 mg/dL; in the assay on SD rat [4] (setting [10]), 120.69 ± 13.77 mg/dL.
On to `O=C(O)[C@]1(O)C[C@@H](O)[C@@H](O)[C@H](O)C1` [quinic acid], for which the “inhibitory activity against α-amylase” value in assay [3] is listed as “excellent inhibitory activity”. The “inhibitory activity against rat intestinal α-glucosidase” value in assay [1] is “increases in dependence on the concentration”.

Values taken from US20250170200A1, “COMPOSITION COMPRISING COFFEE EXTRACT FOR SUPPRESSING POSTPRANDIAL BLOOD SUGAR RISE” (PYXIS INC., priority 2022, published 2025).
